Results as given in patent publication US8802597B2, “Herbicidal pyrimidines” (E I du Pont de Nemours and Company, priority 2003, dated 2014).
Like-named read-outs stand apart in the source and are kept apart here.

Columns and labels:
Format in all cases: in vivo
[1] = system: giant foxtail (Setaria faberii); assay: Test C pre/postemergence; settings: for pest or weed control at 125 g/ha / pest or weed control at 16 g/ha / pest or weed control at 31 g/ha / pest or weed control at 62 g/ha: Setaria faberi; for pest or weed control at 16 g/ha: 16 g ai/ha
Source text: (§1) Seeds or nutlets of plant species selected from bermudagrass (Cynodon dactylon), Surinam grass (Brachiaria decumbens), cocklebur (Xanthium strumarium), corn (Zea mays), crabgrass (Digitaria sanguinalis), woolly cupgrass (Eriochloa villosa), giant foxtail (Setaria faberii), goosegrass (Eleusine indica), johnsongrass (Sorghum halepense), kochia (Kochia scoparia), lambsquarters (Chenopodium album), morningglory (Ipomoea coccinea), eastern black nightshade (Solanum ptycanthum), yellow nutsedge (Cyperus esculentus), pigweed (Amaranthus retroflexus), common ragweed (Ambrosia elatior), soybean (Glycine max), common (oilseed) sunflower (Helianthus annuus), and velvetleaf (Abutilon theophrasti) were planted and treated preemergence with test chemicals formulated in a non-phytotoxic solvent mixture which included a surfactant.
(§2) At the same time, plants selected from these crop and weed species and also winter barley (Hordeum vulgare), blackgrass (Alopecurus myosuroides), canarygrass (Phalaris minor), chickweed (Stellaria media), downy brome (Bromus tectorum), green foxtail (Setaria viridis), Italian ryegrass (Lolium multiflorum), wheat (Triticum aestivum), wild oat (Avena fatua) and windgrass (Apera spica-venti) were treated with postemergence applications of some of the test chemicals formulated in the same manner. Plants ranged in height from 2 to 18 cm (1- to 4-leaf stage) for postemergence treatments. Plant species in the flooded paddy test consisted of rice (Oryza sativa), umbrella sedge (Cyperus difformis), duck salad (Heteranthera limosa) and barnyardgrass (Echinochloa crus-galli) grown to the 2-leaf stage for testing. Treated plants and controls were maintained in a greenhouse for 12 to 14 days, after which time all species were compared to controls and visually evaluated. Plant response ratings, summarized in Table C, are based on a scale of 0 to 100 where 0 is no effect and 100 is complete control. A dash (-) response means no test result.

[2] = system: goosegrass (Eleusine indica); assay: Test C pre/postemergence; settings: for pest or weed control at 16 g/ha / pest or weed control at 31 g/ha / pest or weed control at 62 g/ha / pest or weed control at 125 g/ha: Eleusine indica; for pest or weed control at 16 g/ha: 16 g ai/ha
Source text: as §1, §2

[3] = system: lambsquarters (Chenopodium album); assay: Test C pre/postemergence; settings: for pest or weed control at 16 g/ha / pest or weed control at 31 g/ha / pest or weed control at 62 g/ha / pest or weed control at 125 g/ha: Chenopodium album; for pest or weed control at 16 g/ha: 16 g ai/ha
Source text: as §1, §2

[4] = system: velvetleaf (Abutilon theophrasti); assay: Test C pre/postemergence; settings: for pest or weed control at 16 g/ha / pest or weed control at 31 g/ha / pest or weed control at 62 g/ha / pest or weed control at 125 g/ha: Abutilon theophrasti; for pest or weed control at 16 g/ha: 16 g ai/ha
Source text: as §1, §2

[5] = system: chickweed (Stellaria media); assay: Test C postemergence; settings: for Plant response rating, Chickweed: scale 0 to 100
Summary of the method: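 Applications: preemergence onto seeded soil and postemergence onto 1- to 4-leaf seedlings, compound carried in non-phytotoxic solvent plus surfactant. Kept in greenhouse 12 to 14 days. Scored visually relative to untreated controls, 0 (no effect) to 100 (complete control).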

[6] = Postemergence, 62 g ai/ha, scale 0 to 100 (0 no effect, 100 complete control)
[7] = Postemergence, 125 g ai/ha, scale 0 to 100 (0 no effect, 100 complete control)
[8] = Postemergence, 250 g ai/ha, scale 0 to 100
[9] = Preemergence, 31 g ai/ha, scale 0 to 100, 0 no effect, 100 complete control
[10] = Preemergence, 62 g ai/ha, scale 0 to 100, 0 no effect, 100 complete control
[11] = Preemergence, 125 g ai/ha, scale 0 to 100
[12] = Preemergence, 250 g ai/ha, scale 0 to 100

SMILES: COC(=O)c1nc(C2CC2)nc(N)c1F [Compound 25]
- pest or weed control at 125 g/ha ([1]; post-emergence, Postemergence, 125 g ai/ha, scale 0 to 100 (0 no effect, 100 complete control), read-out: Foxtail, Giant plant response rating): 30%
- pest or weed control at 16 g/ha ([1]; post-emergence, Postemergence, read-out: Plant response rating (scale of 0 to 100), Foxtail, Giant): 0%
- pest or weed control at 31 g/ha ([1]; post-emergence, Postemergence, 31 g ai/ha, read-out: Plant response rating (scale of 0 to 100), Foxtail, Giant): 0%
- pest or weed control at 62 g/ha ([1]; post-emergence, Postemergence, 62 g ai/ha, scale 0 to 100 (0 no effect, 100 complete control), read-out: Foxtail, Giant plant response rating): 5%
- pest or weed control at 16 g/ha ([1]; pre-emergence, Preemergence, scale 0 to 100, 0 no effect, 100 complete control, read-out: Plant response rating, Foxtail, Giant): 0%
- pest or weed control at 31 g/ha ([1]; pre-emergence, Preemergence, 31 g ai/ha, scale 0 to 100, 0 no effect, 100 complete control, read-out: Plant response rating, Foxtail, Giant): 0%
- pest or weed control at 62 g/ha ([1]; pre-emergence, Preemergence, 62 g ai/ha, scale 0 to 100, 0 no effect, 100 complete control, read-out: Plant response rating, Foxtail, Giant): 0%
- pest or weed control at 125 g/ha ([1]; pre-emergence, Preemergence, 125 g ai/ha, scale 0 to 100, read-out: Plant response rating, Foxtail, Giant): 0%
- pest or weed control at 16 g/ha ([2]; post-emergence, Postemergence, read-out: Plant response rating (scale of 0 to 100), Goosegrass): 0%
- pest or weed control at 31 g/ha ([2]; post-emergence, Postemergence, 31 g ai/ha, read-out: Plant response rating (scale of 0 to 100), Goosegrass): 0%
- pest or weed control at 62 g/ha ([2]; post-emergence, Postemergence, 62 g ai/ha, scale 0 to 100 (0 no effect, 100 complete control), read-out: Goosegrass plant response rating): 0%
- pest or weed control at 125 g/ha ([2]; post-emergence, Postemergence, 125 g ai/ha, scale 0 to 100 (0 no effect, 100 complete control), read-out: Goosegrass plant response rating): 0%
- pest or weed control at 16 g/ha ([2]; pre-emergence, Preemergence, scale 0 to 100, 0 no effect, 100 complete control, read-out: Plant response rating, Goosegrass): 0%
- pest or weed control at 31 g/ha ([2]; pre-emergence, Preemergence, 31 g ai/ha, scale 0 to 100, 0 no effect, 100 complete control, read-out: Plant response rating, Goosegrass): 0%
- pest or weed control at 62 g/ha ([2]; pre-emergence, Preemergence, 62 g ai/ha, scale 0 to 100, 0 no effect, 100 complete control, read-out: Plant response rating, Goosegrass): 0%
- pest or weed control at 125 g/ha ([2]; pre-emergence, Preemergence, 125 g ai/ha, scale 0 to 100, read-out: Plant response rating, Goosegrass): 0%
- pest or weed control at 16 g/ha ([3]; post-emergence, Postemergence, read-out: Plant response rating (scale of 0 to 100), Lambsquarters): 30%
- pest or weed control at 31 g/ha ([3]; post-emergence, Postemergence, 31 g ai/ha, read-out: Plant response rating (scale of 0 to 100), Lambsquarters): 60%
- pest or weed control at 62 g/ha ([3]; post-emergence, Postemergence, 62 g ai/ha, scale 0 to 100 (0 no effect, 100 complete control), read-out: Lambsquarters plant response rating): 85%
- pest or weed control at 125 g/ha ([3]; post-emergence, Postemergence, 125 g ai/ha, scale 0 to 100 (0 no effect, 100 complete control), read-out: Lambsquarters plant response rating): 90%
- pest or weed control at 16 g/ha ([3]; pre-emergence, Preemergence, scale 0 to 100, 0 no effect, 100 complete control, read-out: Plant response rating, Lambsquarters): 0%
- pest or weed control at 31 g/ha ([3]; pre-emergence, Preemergence, 31 g ai/ha, scale 0 to 100, 0 no effect, 100 complete control, read-out: Plant response rating, Lambsquarters): 0%
- pest or weed control at 62 g/ha ([3]; pre-emergence, Preemergence, 62 g ai/ha, scale 0 to 100, 0 no effect, 100 complete control, read-out: Plant response rating, Lambsquarters): 30%
- pest or weed control at 125 g/ha ([3]; pre-emergence, Preemergence, 125 g ai/ha, scale 0 to 100, read-out: Plant response rating, Lambsquarters): 50%
- pest or weed control at 16 g/ha ([4]; post-emergence, Postemergence, read-out: Plant response rating (scale of 0 to 100), Velvetleaf): 5%
- pest or weed control at 31 g/ha ([4]; post-emergence, Postemergence, 31 g ai/ha, read-out: Plant response rating (scale of 0 to 100), Velvetleaf): 20%
- pest or weed control at 62 g/ha ([4]; post-emergence, Postemergence, 62 g ai/ha, scale 0 to 100 (0 no effect, 100 complete control), read-out: Velvetleaf plant response rating): 45%
- pest or weed control at 125 g/ha ([4]; post-emergence, Postemergence, 125 g ai/ha, scale 0 to 100 (0 no effect, 100 complete control), read-out: Velvetleaf plant response rating): 45%
- pest or weed control at 16 g/ha ([4]; pre-emergence, Preemergence, scale 0 to 100, 0 no effect, 100 complete control, read-out: Plant response rating, Velvetleaf): 0%
- pest or weed control at 31 g/ha ([4]; pre-emergence, Preemergence, 31 g ai/ha, scale 0 to 100, 0 no effect, 100 complete control, read-out: Plant response rating, Velvetleaf): 0%
- pest or weed control at 62 g/ha ([4]; pre-emergence, Preemergence, 62 g ai/ha, scale 0 to 100, 0 no effect, 100 complete control, read-out: Plant response rating, Velvetleaf): 0%
- pest or weed control at 125 g/ha ([4]; pre-emergence, Preemergence, 125 g ai/ha, scale 0 to 100, read-out: Plant response rating, Velvetleaf): 40%
- pest or weed control at 16 g/ha ([5]; Stellaria media, post-emergence, 16 g ai/ha, read-out: Plant response rating (scale of 0 to 100), Chickweed): 0%
- pest or weed control at 62 g/ha ([5]; Stellaria media, post-emergence, 62 g ai/ha, scale 0 to 100 (0 no effect, 100 complete control), read-out: Chickweed plant response rating): 40%
- pest or weed control at 125 g/ha ([5]; Stellaria media, post-emergence, 125 g ai/ha, scale 0 to 100 (0 no effect, 100 complete control), read-out: Chickweed plant response rating): 85%

SMILES: CC(C)COC(=O)c1nc(C2CC2)nc(N)c1Br [Compound 17]
- Plant response rating (scale of 0 to 100), Foxtail, Giant ([1]; Postemergence, 31 g ai/ha): 0
- Foxtail, Giant plant response rating [1, 6]: 0
- Foxtail, Giant plant response rating [1, 7]: 0
- Plant response rating, Foxtail, Giant [1, 8]: 35
- Plant response rating, Foxtail, Giant [1, 9]: 0
- Plant response rating, Foxtail, Giant [1, 10]: 0
- Plant response rating, Foxtail, Giant [1, 11]: 20
- Plant response rating, Foxtail, Giant [1, 12]: 75
- Plant response rating (scale of 0 to 100), Goosegrass ([2]; Postemergence, 31 g ai/ha): 0
- Goosegrass plant response rating [2, 6]: 0
- Goosegrass plant response rating [2, 7]: 0
- Plant response rating, Goosegrass [2, 8]: 0
- Plant response rating, Goosegrass [2, 9]: 0
- Plant response rating, Goosegrass [2, 10]: 0
- Plant response rating, Goosegrass [2, 11]: 0
- Plant response rating, Goosegrass [2, 12]: 0
- Plant response rating (scale of 0 to 100), Lambsquarters ([3]; Postemergence, 31 g ai/ha): 95
- Lambsquarters plant response rating [3, 6]: 100
- Lambsquarters plant response rating [3, 7]: 100
- Plant response rating, Lambsquarters [3, 8]: 100
- Plant response rating, Lambsquarters [3, 9]: 95
- Plant response rating, Lambsquarters [3, 10]: 95
- Plant response rating, Lambsquarters [3, 11]: 100
- Plant response rating, Lambsquarters [3, 12]: 100
- Plant response rating (scale of 0 to 100), Velvetleaf ([4]; Postemergence, 31 g ai/ha): 25
- Velvetleaf plant response rating [4, 6]: 50
- Velvetleaf plant response rating [4, 7]: 80
- Plant response rating, Velvetleaf [4, 8]: 95
- Plant response rating, Velvetleaf [4, 9]: 20
- Plant response rating, Velvetleaf [4, 10]: 80
- Plant response rating, Velvetleaf [4, 11]: 100
- Plant response rating, Velvetleaf [4, 12]: 100
- Plant response rating (scale of 0 to 100), Chickweed ([5]; 31 g ai/ha): 0
- Chickweed plant response rating ([5]; 62 g ai/ha, scale 0 to 100 (0 no effect, 100 complete control)): 0
- Plant response rating, Chickweed ([5]; 125 g ai/ha): 55
- Plant response rating, Chickweed ([5]; 250 g ai/ha): 85
